Measured values as given in PubChem BioAssay (NCI).
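Compound exposure: 48 hours, 5 concentrations, 96-well plates. TGI: concentration producing complete growth inhibition.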

Assays:
Experiment in all cases: inhibition of tumour cell growth, NCI panel, 48 h
[1] = test system: TK-10 renal
[2] = test system: HCT-116 colon
[3] = test system: UACC-257 melanoma
[4] = test system: EKVX NSCLC
[5] = test system: IGROV1 ovarian
[6] = test system: M14 melanoma
[7] = test system: COLO 205 colon
[8] = test system: HOP-62 NSCLC
[9] = test system: UO-31 renal
[10] = test system: NCI-H23 lung
[11] = test system: HS 578T breast
[12] = test system: UACC-62 melanoma
[13] = test system: MOLT-4 leukemia
[14] = test system: LOX IMVI melanoma
[15] = test system: A498 renal
[16] = test system: NCI-H460 lung
[17] = test system: CAKI-1 renal
[18] = test system: SR leukemia
[19] = test system: SK-MEL-5 melanoma
[20] = test system: HCT-15 colon
[21] = test system: SNB-75 CNS
[22] = test system: OVCAR-3 ovarian
[23] = test system: HT29 colon
[24] = test system: DU-145 prostate
[25] = test system: SN12C renal
[26] = test system: SF-539 CNS
[27] = test system: OVCAR-4 ovarian
[28] = test system: CCRF-CEM leukemia
[29] = test system: MALME-3M melanoma
[30] = test system: SK-MEL-2 melanoma
[31] = test system: SF-268 CNS
[32] = test system: MCF7 breast
[33] = test system: SW-620 colon
[34] = test system: NCI/ADR-RES ovarian
[35] = test system: SK-OV-3 ovarian
[36] = test system: A549 NSCLC
[37] = test system: HOP-92 NSCLC
[38] = test system: NCI-H226 lung
[39] = test system: SNB-19 CNS
[40] = test system: HCC-2998 colon
[41] = test system: K-562 leukemia
[42] = test system: PC-3 prostate
[43] = test system: BT-549 breast
[44] = test system: OVCAR-5 ovarian
[45] = test system: SK-MEL-28 melanoma
[46] = test system: MDA-N
[47] = test system: RPMI-8226 leukemia
[48] = test system: OVCAR-8 ovarian
[49] = test system: SF-295 CNS
[50] = test system: RXF 393 renal
[51] = test system: U251 CNS
[52] = test system: T-47D breast
[53] = test system: ACHN renal
[54] = test system: MDA-MB-231 breast
[55] = test system: NCI-H522 lung
[56] = test system: 786-0 renal
[57] = test system: KM12 colon
[58] = test system: MDA-MB-435

Structure (SMILES): NC(N)=N/N=C\c1ccc(C2CCNCC2)cc1
- TGI [1]: > 100 µM
- TGI [2]: > 100 µM
- TGI [3]: > 100 µM
- TGI [4]: > 100 µM
- TGI [5]: > 100 µM
- TGI [6]: > 100 µM
- TGI [7]: > 100 µM
- TGI [8]: > 100 µM
- TGI [9]: > 100 µM
- TGI [10]: > 100 µM
- TGI [11]: > 100 µM
- TGI [12]: > 100 µM
- TGI [13]: > 100 µM
- TGI [14]: > 100 µM
- TGI [15]: > 100 µM
- TGI [16]: > 100 µM
- TGI [17]: > 100 µM
- TGI [18]: > 100 µM
- TGI [19]: > 100 µM
- TGI [20]: > 100 µM
- TGI [21]: > 100 µM
- TGI [22]: > 100 µM
- TGI [23]: > 100 µM
- TGI [24]: > 100 µM
- TGI [25]: > 100 µM
- TGI [26]: > 100 µM
- TGI [27]: > 100 µM
- TGI [28]: > 100 µM
- TGI [29]: > 100 µM
- TGI [30]: > 100 µM
- TGI [31]: > 100 µM
- TGI [32]: > 100 µM
- TGI [33]: > 100 µM
- TGI [34]: > 100 µM
- TGI [35]: > 100 µM
- TGI [36]: > 100 µM
- TGI [37]: > 100 µM
- TGI [38]: > 100 µM
- TGI [39]: > 100 µM
- TGI [40]: > 100 µM
- TGI [41]: > 100 µM
- TGI [42]: > 100 µM
- TGI [43]: > 100 µM
- TGI [44]: > 100 µM
- TGI [45]: > 100 µM
- TGI [46]: > 100 µM
- TGI [47]: > 100 µM
- TGI [48]: > 100 µM
- TGI [49]: > 100 µM
- TGI [50]: > 100 µM
- TGI [51]: > 100 µM
- TGI [52]: > 100 µM
- TGI [53]: > 100 µM
- TGI [54]: > 100 µM
- TGI [55]: > 100 µM
- TGI [56]: > 100 µM
- TGI [57]: > 100 µM
- TGI [58]: > 100 µM

Structure (SMILES): OC/C=C/[C@H](OCc1ccccc1)[C@H](/C=C/CO)OCc1ccccc1
- TGI [1]: > 100 µM
- TGI [2]: > 100 µM
- TGI [3]: > 100 µM
- TGI [4]: > 100 µM
- TGI [5]: > 100 µM
- TGI [6]: > 100 µM
- TGI [7]: > 100 µM
- TGI [8]: > 100 µM
- TGI [9]: > 100 µM
- TGI [10]: > 100 µM
- TGI [11]: > 100 µM
- TGI [12]: > 100 µM
- TGI [13]: 40 µM
- TGI [14]: 47.4 µM
- TGI [15]: > 100 µM
- TGI [16]: > 100 µM
- TGI [17]: > 100 µM
- TGI [18]: 39.6 µM
- TGI [19]: > 100 µM
- TGI [20]: > 100 µM
- TGI [21]: > 100 µM
- TGI [22]: > 100 µM
- TGI [23]: 59.9 µM
- TGI [24]: > 100 µM
- TGI [25]: > 100 µM
- TGI [26]: > 100 µM
- TGI [27]: 95 µM
- TGI [28]: 51.4 µM
- TGI [29]: > 100 µM
- TGI [30]: > 100 µM
- TGI [31]: 94.6 µM
- TGI [32]: > 100 µM
- TGI [33]: > 100 µM
- TGI [34]: > 100 µM
- TGI [35]: > 100 µM
- TGI [36]: > 100 µM
- TGI [37]: > 100 µM
- TGI [38]: > 100 µM
- TGI [39]: 85.9 µM
- TGI [40]: > 100 µM
- TGI [41]: 54.7 µM
- TGI [42]: > 100 µM
- TGI [43]: > 100 µM
- TGI [44]: > 100 µM
- TGI [45]: > 100 µM
- TGI [46]: > 100 µM
- TGI [47]: 42.8 µM
- TGI [48]: > 100 µM
- TGI [49]: > 100 µM
- TGI [50]: > 100 µM
- TGI [51]: 69.1 µM
- TGI [52]: 88.8 µM
- TGI [53]: > 100 µM
- TGI [54]: > 100 µM
- TGI [55]: > 100 µM
- TGI [56]: > 100 µM
- TGI [57]: > 100 µM
- TGI [58]: > 100 µM
